Data on 1 molecule can be found in publication PMC8071423, “A New Pyrimidine Schiff Base with Selective Activities against Enterococcus faecalis and Gastric Adenocarcinoma” (Molecules, 2021).

As usually defined, the IC50 is the concentration that inhibits the measured activity by half. Low values mean greater potency, high ones weaker potency.

Series [1] relates to AGS cell line. The series is described as follows: Annexin V/PI staining, flow cytometry. The series is classed as cell-based, human. Conditions: 24 h incubation. The protocol:
A quantitative analysis of apoptosis was performed by flow cytometry with Alexa Fluor 488 annexin V and PI staining (Thermo Scientific Waltham, MA, USA). Briefly, 3 × 10^5 cells were seeded in 6-well plates. After overnight incubation, the tested compound was added to wells in 5 × IC50 concentration (250 µM). Cells were incubated and tested after 6, 12, 18, and 24 h, according to the manufacturer’s protocol. After incubation, cells were harvested, washed with PBS, and resuspended in 1× binding buffer to a final concentration of 1–5 × 10^6 cell/mL. Then 5 µL of Alexa Fluor 488-annexin V was added to 100 µL of cell suspension and incubated in the dark for 15 min. After incubation, the dye was removed, and cells were suspended in 1 mL of binding buffer. Directly before analysis, cells were incubated with 1 µL PI for 2 min and analyzed by flow cytometry (using CyFlow® Space flow cytometer and FloMax software).

Series [2] in a line: Neutral red uptake assay, L-929 cell line (primary screening). The series is classed as cell-based, mouse. To be noted: mouse, L-929 cells, p < 0,05. How it is done:
L-929 (mouse C3H/An connective tissue), Caco-2 (human colon adenocarcinoma), A172 (human glioblastoma), AGS (human gastric adenocarcinoma), HepaRG (human hepatoma cell), and HeLa (human cervix epithelioid carcinoma) cell lines were obtained from the European Collection of Authenticated Cell Cultures (ECACC) and provided by Sigma Aldrich/Merck (Munich, Germany). All cell lines were cultured in complete mediums prepared according to the ECACC recommendations and incubated in a humidified atmosphere with 5% CO2 at 37 °C. Neutral red uptake assay was performed according to the protocol. 24 h before treatment cells were seeded in 96-well plates in 1 × 10^5 cell/mL of complete medium. After incubation and attachment of cells, the medium was discarded, and test substances dissolved in the fresh medium were added to wells. Samples were tested after 24, 48, and 72 h incubation. A neutral red working solution (40 µg/mL) was prepared and incubated overnight. Immediately before use, it was centrifuged to remove any dye crystals. The medium from wells was aspirated, and 100 µL of neutral red was added to plates and incubated for at least 2 h in 37 °C and 5% CO2 in a humidified atmosphere. To inspect the absorption of neutral red to the lysosomes, microscope visualizations were performed. After incubation, cells were washed with PBS, and destain solution containing ethanol, deionized water, and glacial acetic acid (50:49:1) was added. Plates were shaken rapidly on a horizontal shaker at 37 °C. Absorption was measured using a Thermo Scientific™ (Waltham, MA, USA) Multiskan™ GO microplate spectrophotometer at 540 nm. The negative control was a medium with 1% DMSO, and the positive control was 1 µM staurosporine. Viability was calculated according to the following formula:(1) % Viability=ODtest substance−ODblind/ODnegative control−ODblind×100 Neutral red uptake assay was performed in quadruple (n = 4). Results were calculated to mean ± standard deviation (SD) using Microsoft Office Excel 2007. The viability in negative control was compared to 100%. Statistical analyses were performed using the GraphPad Prism 8.3 for Windows (GraphPad Software, La Jolla, CA, USA, www.graphpad.com). For IC50 results, non-linear regression analyses were performed, and a sigmoidal dose-response curve (variable slope) was fitted. Differences between groups and control were tested using an ANOVA test followed by Dunnett’s post hoc analysis. The significance was set at p ≤ 0.05.

The subject of another series is A172. Briefly: Neutral red uptake assay, A172. The series is classed as cell-based. Conditions: Homo sapiens, A 172, 72 h exposure. How it is done: L-929 (mouse C3H/An connective tissue), Caco-2 (human colon adenocarcinoma), A172 (human glioblastoma), AGS (human gastric adenocarcinoma), HepaRG (human hepatoma cell), and HeLa (human cervix epithelioid carcinoma) cell lines were obtained from the European Collection of Authenticated Cell Cultures (ECACC) and provided by Sigma Aldrich/Merck (Munich, Germany). All cell lines were cultured in complete mediums prepared according to the ECACC recommendations and incubated in a humidified atmosphere with 5% CO2 at 37 °C. Neutral red uptake assay was performed according to the protocol. 24 h before treatment cells were seeded in 96-well plates in 1 × 10^5 cell/mL of complete medium. After incubation and attachment of cells, the medium was discarded, and test substances dissolved in the fresh medium were added to wells. Samples were tested after 24, 48, and 72 h incubation. A neutral red working solution (40 µg/mL) was prepared and incubated overnight. […] Absorption was measured using a Thermo Scientific™ (Waltham, MA, USA) Multiskan™ GO microplate spectrophotometer at 540 nm. […] Viability was calculated according to the following formula:(1) % Viability=ODtest substance−ODblind/ODnegative control−ODblind×100 Neutral red uptake assay was performed in quadruple (n = 4). Results were calculated to mean ± standard deviation (SD) using Microsoft Office Excel 2007. […]

In series [3] the test system is AGS cell line. Briefly: Comet assay (alkaline single-cell gel electrophoresis), DNA damage. The series is classed as cell-based, human. To be noted: 50 µM. The protocol: To evaluate DNA damage induced by incubation with 3, alkaline single-cell gel electrophoresis (comet assay) was performed. Cells were seeded in 12-well plates in a density of 1 × 10^5 cell/well. After overnight incubation, the tested compound in IC50 concentration (50 µM) was added. After incubation, cells were harvested, centrifuged, and resuspended in PBS. The cell suspension was mixed with 1% low melting point agarose and attached to the slide covered with 1% normal melting point agarose. Subsequently, slides were incubated in a buffer (pH 10.0) containing 2.5 M NaCl, 10 mM Tris-HCl buffer, 100 mM EDTA, and 1% Triton X-100 for 1 h. Then samples were transferred to alkaline electrophoresis buffer containing 0.3 M […] and 1mM EDTA for a 20 min incubation followed by electrophoresis performed at 25 V and 300 mA for 20 min. After electrophoresis, samples were incubated with a neutral pH buffer (0.4 M Tris-HCl, pH 7.5) for 10 min and washed with deionized water. After air-drying, samples were stained with Hoechst 33342 and visualized with a fluorescence microscope using a UV filter. The damages were visually scored from 100 randomly selected cells. […] Based on results, the damage index (DI) was calculated according to the following formula:(3) DI=0×n0+1×n1+2×n2+3×n3+4×n4, where n stands for the amount of each class.

The test system of series [4] is AGS cell line. The series is described as follows: Flow cytometry viability, FDA/PI double staining. In kind it is cell-based, human. How it is done:
The flow cytometry analysis was performed to determine cell viability after treatment with a compound showing high proliferation inhibition in neutral red uptake assay. The test is based on FDA’s ability to pass through an intact cell membrane, where it can be hydrolyzed by cytoplasmic esterases to fluorescein, a bright green fluorophore. The protocol was based on a double-staining procedure with FDA and PI [75]. For stock solutions, FDA was dissolved in DMSO and PI in H2O to 1 mM concentrations. Cells were seeded in a 6-well plate with a density of 1 × 10^5 cell/well and maintained at 37 °C under 5% CO2 in a humidified atmosphere. After overnight incubation, cells were treated with a compound diluted to the following concentrations: 100, 80, 40, 10, and 1 µM. Flow cytometry analyses were performed after 24, 48, and 72 h incubation. For the analysis, both floating and adherent cells were collected, centrifuged at 1600 rpm, and washed with PBS. Cells were stained with FDA with a final concentration of 1 µM in PBS, and kept in the dark for 15 min. After incubation, cells were centrifuged, resuspended in ice-cold PBS, and kept on ice until analysis. Directly before testing, samples were stained with a 1 µM PI solution for 2 min. The acquisition was performed with a CyFlow® space flow cytometer, and data analyses were performed using the FloMax software (Partec, Münster, Germany). The percentage of viable cells was calculated based on FDA absorption according to the following formula:(2) % ViabilityFDA=% live cells under experimental conditions/% live cells from negative control×100
Background: Flow cytometry measures light scatter and fluorescence of single cells or particles in a stream.

In the case of `CCOc1ccc(N=Cc2c(C)nc(-c3ccccc3)nc2Nc2ccc(F)cc2)cc1` [Compound 3, 5-[(4-ethoxyphenyl)imino]methyl-N-(4-fluorophenyl)-6-methyl-2-phenylpyrimidin-4-amine], in the series on AGS cell line [1] (250 µM, control 0.71%), the “necrotic cells (stained with PI only)” value was 2.22%. Also, the “late apoptotic cells (double-stained)” value with AGS cell line [1] (250 µM, control 2.48%) amounted to 21.58%. In addition, the “early apoptotic cells (annexin V stained)” value in the series with AGS cell line [1] (250 µM, control 3.24%) came out at 16.18%. The viability at 250 µM with AGS cell line [1] (Homo sapiens, control 93.57%, read-out: viable cells (unstained)) was determined as 60%; in series [2] (L-929, 250 µM), 115%. Further, in series [2] (L-929, 500 µM), the viability at 500 µM came out at 111%. In addition, the viability at 1000 µM in series [2] (L-929, 1000 µM) worked out at 115%. Further, the IC50 was found to be 526 µM in the series with A172 and 53 µM in the series with AGS cell line [4] (Homo sapiens, referred to control with 1% DMSO). Moreover, the “DNA damage index (DI)” value in the series on AGS cell line [3] (48 h, control 52) is given as 183; in the series on AGS cell line [3] (72 h, control 20), 259. Further, in the series on AGS cell line [4] (100 µM), the “cells in Q3 (unstained)” value turned out to be 43.72%. For the same molecule, the “cells in Q4 (PI stained, dead)” value with AGS cell line [4] (100 µM) turned out to be 35.76%. For the same molecule, the viability at 1 µM in the series on AGS cell line [4] (Homo sapiens, 1 µM, read-out: cells in Q1 (FDA stained, viable)) is 81.5%. In the series on AGS cell line [4] (Homo sapiens, 10 µM, read-out: cells in Q1 (FDA stained, viable)), the viability at 10 µM was 66.4%. Further, the viability at 40 µM in the series on AGS cell line [4] (Homo sapiens, 40 µM, read-out: cells in Q1 (FDA stained, viable)) stood at 62.4%. In the series on AGS cell line [4] (Homo sapiens, 80 µM, read-out: cells in Q1 (FDA stained, viable)), the viability at 80 µM was 41.8%. For the same molecule, the viability at 100 µM in the series on AGS cell line [4] (Homo sapiens, 100 µM, read-out: cells in Q1 (FDA stained, viable)) came out at 20.2%.
